Patent publication US20040175691A1, “Use of the KCNQ2 and KCNQ3 genes for the discovery of agents useful in the treatment of neurological disorders” (priority 1998, published 2004)

Key:
Format in all cases: cell-based
elk1 = target: T1, elk1 (Rattus norvegicus, UniProt Q9QWS8); assay: Blockade of cloned elk1 channel in oocytes
T1 construct: expressed in transfected cells; host or cells: oocytes (Xenopus)
T1 sequence (Q9QWS8 1-1102): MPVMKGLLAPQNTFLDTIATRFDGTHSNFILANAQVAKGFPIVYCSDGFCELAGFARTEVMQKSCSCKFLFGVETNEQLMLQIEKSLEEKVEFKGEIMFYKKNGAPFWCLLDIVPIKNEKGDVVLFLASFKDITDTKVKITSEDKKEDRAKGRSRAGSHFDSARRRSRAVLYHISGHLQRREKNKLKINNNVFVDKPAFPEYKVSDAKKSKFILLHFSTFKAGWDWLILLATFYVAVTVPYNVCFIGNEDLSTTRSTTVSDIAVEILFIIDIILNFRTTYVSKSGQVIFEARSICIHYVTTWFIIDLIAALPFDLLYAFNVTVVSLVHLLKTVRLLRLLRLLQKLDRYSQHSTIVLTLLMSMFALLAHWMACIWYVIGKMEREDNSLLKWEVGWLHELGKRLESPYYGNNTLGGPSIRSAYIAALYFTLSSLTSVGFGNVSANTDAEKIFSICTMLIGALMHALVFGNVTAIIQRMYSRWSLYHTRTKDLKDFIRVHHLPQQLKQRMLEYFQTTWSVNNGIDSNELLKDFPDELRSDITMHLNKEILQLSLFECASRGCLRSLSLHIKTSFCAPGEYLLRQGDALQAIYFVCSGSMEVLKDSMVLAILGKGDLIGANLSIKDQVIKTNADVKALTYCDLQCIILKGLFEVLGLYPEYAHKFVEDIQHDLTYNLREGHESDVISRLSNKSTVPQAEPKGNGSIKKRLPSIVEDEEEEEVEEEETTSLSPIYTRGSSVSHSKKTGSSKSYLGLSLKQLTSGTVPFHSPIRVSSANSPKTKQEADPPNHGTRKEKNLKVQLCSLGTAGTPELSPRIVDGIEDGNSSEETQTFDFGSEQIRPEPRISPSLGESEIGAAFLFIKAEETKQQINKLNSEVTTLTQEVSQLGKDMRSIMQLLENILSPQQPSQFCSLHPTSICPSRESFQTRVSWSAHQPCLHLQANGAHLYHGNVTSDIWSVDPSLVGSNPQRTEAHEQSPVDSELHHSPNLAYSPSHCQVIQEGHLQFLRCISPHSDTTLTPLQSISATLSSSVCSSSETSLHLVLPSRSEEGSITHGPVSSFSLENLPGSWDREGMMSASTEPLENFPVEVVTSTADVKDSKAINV

eag1 = target: T2, eag1 (Rattus norvegicus, UniProt Q63472); assay: Blockade of cloned eag1 channel in oocytes; details: mean±s.e.m., blockade incomplete
T2 construct: expressed in transfected cells; host or cells: oocytes (Xenopus)
T2 sequence (Q63472 1-962): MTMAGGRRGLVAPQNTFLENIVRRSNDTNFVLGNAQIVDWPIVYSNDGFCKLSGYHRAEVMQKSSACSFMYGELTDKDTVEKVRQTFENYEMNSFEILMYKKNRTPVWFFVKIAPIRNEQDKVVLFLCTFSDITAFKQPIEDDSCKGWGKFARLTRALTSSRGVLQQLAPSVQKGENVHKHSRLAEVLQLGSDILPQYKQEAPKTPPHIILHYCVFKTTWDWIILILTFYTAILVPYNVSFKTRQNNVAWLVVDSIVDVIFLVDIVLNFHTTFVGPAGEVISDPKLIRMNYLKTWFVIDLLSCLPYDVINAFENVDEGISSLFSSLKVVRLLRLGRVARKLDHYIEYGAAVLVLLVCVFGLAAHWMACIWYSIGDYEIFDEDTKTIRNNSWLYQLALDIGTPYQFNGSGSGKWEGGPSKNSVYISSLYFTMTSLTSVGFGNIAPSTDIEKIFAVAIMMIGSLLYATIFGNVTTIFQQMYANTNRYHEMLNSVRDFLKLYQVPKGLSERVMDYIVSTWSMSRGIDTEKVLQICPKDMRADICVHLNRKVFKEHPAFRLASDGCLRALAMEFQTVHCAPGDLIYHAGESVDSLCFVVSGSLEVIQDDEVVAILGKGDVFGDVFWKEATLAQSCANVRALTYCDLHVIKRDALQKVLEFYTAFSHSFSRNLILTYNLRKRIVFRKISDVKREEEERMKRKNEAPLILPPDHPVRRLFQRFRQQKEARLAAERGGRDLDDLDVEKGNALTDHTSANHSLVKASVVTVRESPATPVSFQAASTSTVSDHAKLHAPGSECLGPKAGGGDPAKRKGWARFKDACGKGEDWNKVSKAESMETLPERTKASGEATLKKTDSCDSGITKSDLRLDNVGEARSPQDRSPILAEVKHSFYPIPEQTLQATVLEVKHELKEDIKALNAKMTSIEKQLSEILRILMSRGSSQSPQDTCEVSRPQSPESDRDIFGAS

Kv1.2 = target: T3, Kv1.2 (Homo sapiens, UniProt P16389); assay: Blockade of cloned Kv1.2 channel in oocytes; details: mean±s.e.m.
T3 construct: expressed in transfected cells; host or cells: oocytes (Xenopus)
T3 sequence (P16389 whole entry): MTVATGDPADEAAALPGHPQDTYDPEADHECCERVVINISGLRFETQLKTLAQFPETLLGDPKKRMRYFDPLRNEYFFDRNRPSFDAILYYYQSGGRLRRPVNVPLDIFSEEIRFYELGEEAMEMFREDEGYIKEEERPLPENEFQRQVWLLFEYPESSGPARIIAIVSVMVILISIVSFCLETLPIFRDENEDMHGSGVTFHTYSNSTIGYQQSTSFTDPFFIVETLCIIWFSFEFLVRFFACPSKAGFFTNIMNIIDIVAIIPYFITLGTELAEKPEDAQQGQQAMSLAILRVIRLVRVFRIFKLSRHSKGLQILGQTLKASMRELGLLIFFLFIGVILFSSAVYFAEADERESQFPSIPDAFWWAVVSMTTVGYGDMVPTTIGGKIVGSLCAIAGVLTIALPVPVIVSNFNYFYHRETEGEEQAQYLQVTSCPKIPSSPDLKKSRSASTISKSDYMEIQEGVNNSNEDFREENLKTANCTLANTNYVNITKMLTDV

Kv4.3 = target: T4, Kv4.3 (Homo sapiens, UniProt Q9UK17); assay: Blockade of cloned Kv4.3 channel in oocytes; details: mean±s.e.m.
T4 construct: expressed in transfected cells; host or cells: oocytes (Xenopus)
T4 sequence (Q9UK17 1-655): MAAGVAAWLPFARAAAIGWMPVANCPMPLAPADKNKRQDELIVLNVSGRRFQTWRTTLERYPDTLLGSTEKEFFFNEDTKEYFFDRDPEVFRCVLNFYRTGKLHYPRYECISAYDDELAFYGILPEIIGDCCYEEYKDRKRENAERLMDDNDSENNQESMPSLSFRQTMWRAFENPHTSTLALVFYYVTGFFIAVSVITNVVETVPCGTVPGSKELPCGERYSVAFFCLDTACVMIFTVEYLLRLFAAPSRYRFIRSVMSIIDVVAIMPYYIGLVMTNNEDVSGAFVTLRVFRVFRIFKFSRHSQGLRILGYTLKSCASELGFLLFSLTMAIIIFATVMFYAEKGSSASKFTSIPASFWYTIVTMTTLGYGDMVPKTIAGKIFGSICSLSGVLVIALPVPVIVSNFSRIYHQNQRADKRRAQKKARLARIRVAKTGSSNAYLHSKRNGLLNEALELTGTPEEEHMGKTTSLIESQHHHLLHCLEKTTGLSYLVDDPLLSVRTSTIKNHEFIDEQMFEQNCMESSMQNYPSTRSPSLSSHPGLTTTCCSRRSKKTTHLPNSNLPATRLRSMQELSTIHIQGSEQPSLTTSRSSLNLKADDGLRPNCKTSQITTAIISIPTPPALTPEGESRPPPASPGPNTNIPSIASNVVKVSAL

Row | IC50 (elk1; oocytes) [µM] | IC50 (eag1) [µM] | IC50 (Kv1.2) [µM] | IC50 (Kv4.3) [µM] | IC50 (elk1; at +30 mV) [µM] | IC50 (elk1; at −20 mV) [µM] | IC50 (elk1; step to −10 mV, voltage dependent) [µM] | SMILES
1 | > 100 | 49 ± 6 | > 100 | 43 ± 7 |  |  |  | O=C1c2ccccc2C(Cc2ccncc2)(Cc2ccncc2)c2ccccc21 [XE991, 10,10-bis(4-pyridinylmethyl)-9(10H)-anthracenone]
2 |  | 31 ± 3 | 68 ± 6 | 86 ± 14 | 144 | 26 | 37 ± 4 | O=C1N(c2ccccc2)c2ccccc2C1(Cc1ccncc1)Cc1ccncc1 [Linopirdine, 3,3-bis(4-pyridinylmethyl)-1-phenylindolin-2-one]
